The source of these data is US10858479B2, “Y-type discrete polyethylene glycol derivative and preparation method thereof” (JenKem Technology Co., Ltd. (Beijing), priority 2015, dated 2020).

Data set [1] is described as follows: Comparison test of dispersibility of cholesterol and cholesterol derivatives in water. The format is physicochemical. Particulars: 20 mg in 50 mL water, 20° C. water bath, FIG. 7.
Data set [2] in a line: Comparison test of solubility of derivatives in water.
Protocol: 20.0 mg cholesterol derivative of (l) prepared in Example 7 was dispersed in 50 mL water, 5 mL was taken out therefrom and added with 1.5 mL water, the resulting mixture was placed in a 20° C. water bath, and shaken vigorously for 30 s every 5 min.
24.2 mg cholesterol derivative of mEG7-OH prepared in Example 8 was dispersed in 50 mL of water, 5 mL was taken out therefrom and added with 5 mL water, the resulting mixture was shaken vigorously for 30 s every 5 min.
111.0 mg the hexadecanol derivative of (1) prepared in Example 7 was dispersed in 25 μL of water and shaken vigorously for 30 s every 5 min.
112.9 mg the hexadecanol derivative of mEG7-OH prepared in Example 8 was dispersed in 50 μL of water and shaken vigorously for 30 s every 5 min.
101.3 mg the menthol derivative of mEG7-OH prepared in Example 8 was dispersed in 50 μL of water and vigorously shaken for 30 s every 5 min. After 30 min, the solution was turbid; another 50 μL of water was added, the resulting mixture was vigorously shaken for 30 s every 5 min.

Where two headings read alike, the source gives them in different places.

In the case of `CC(C)CCC[C@@H](C)[C@H]1CC[C@H]2[C@@H]3CC=C4C[C@@H](O)CC[C@]4(C)[C@H]3CC[C@]12C` [cholesterol], the “disperse state in water” value in data set [1] is reported as “completely insoluble”. Besides, the solubility in data set [2] and in data set [2] (listed as Cholesterol) was under 0.2 mg/100 g H2O throughout.

In the case of `CCCCCCCCCCCCCCCCO` [hexadecanol], the solubility in data set [2] and in data set [2] (listed as Hexadecanol) was under 1 mg/100 g H2O each time.

As for `CC1CCC(C(C)C)C(O)C1` (centres unmarked) [menthol], the solubility in data set [2] and in data set [2] (listed as Menthol) was under 100 mg/100 g H2O throughout.

`COCCOCCOCCOCCOCCOCCOCCOC(=O)O[C@H]1CC[C@@]2(C)C(=CC[C@H]3[C@@H]4CC[C@H]([C@H](C)CCCC(C)C)[C@@]4(C)CC[C@@H]32)C1` [cholesterol derivative of mEG7-OH]: in data set [1], the “disperse state in water” value is given as “white emulsion”.
